Experimental data as given in patent US11560372B2, “Heterocyclic compounds useful as modulators of acetylcholine receptors” (TAKEDA PHARMACEUTICAL COMPANY LIMITED, priority 2017, dated 2023).

Tests used:
[1] = Mouse PK test (cassette dosing); type: in vivo; conditions: male, ICR; for Tmax: mouse plasma, time to reach maximum plasma concentration, oral 1 mg/kg; for MRT / clearance: plasma, mouse, intravenous 0.1 mg/kg; for MRT: mean residence time; for clearance: total clearance, read-out: CL total (converted)
Experimental: As the mouse, 8-week-old male ICR mice (Japan SLC, Inc.) were used. They were fed on a solid commercially available diet (CE-2, CLEA Japan, Inc.) and allowed to freely ingest tap water as the drinking water. An intravenous administration solution for the mice was prepared by weighing a test compound, dissolving same in dimethylacetamide (DMA) (Wako Pure Chemical Industries, Ltd.), adding the same volume of 1,3-butanediol (Wako Pure Chemical Industries, Ltd.) and mixing by stirring to give a DMA:1,3-butanediol (1:1, v/v) solution. An oral administration solution was prepared by weighing a test compound, pulverizing same in an agate mortar, and gradually adding 0.5 w/v % aqueous methylcellulose solution to give a suspension. For intravenous administration, the solution was administered into femoral vein of the mice at 0.1 mg/mL/kg (salt converted to free form). For oral administration, the suspension was administered to the mice at 1 mg/5 mL/kg (salt converted to free form). The cassette dosing method was used for the both administration routes, and the test compound was administered in the following manner.
In the case of intravenous administration, blood samples were collected from the tail vein at 5, 10, 15, 30 min, 1, 2, 4, 8 hr after administration, an anticoagulation treatment with heparin sodium (Shimizu Pharmaceutical Co., Ltd.) was performed, and plasma was collected after centrifugation and subjected to the measurement of drug concentration. In the case of oral administration, blood samples were collected from the tail vein at 15, 30 min, 1, 2, 4, 8 hr after administration, an anticoagulation treatment with heparin sodium was performed, and plasma was collected after centrifugation and subjected to the measurement of drug concentration.
All drug concentrations were measured by LC-MS/MS analysis. For a pharmacokinetics test, the plasma (5 μL) was placed in a tube, acetonitrile (115 μL) containing internal standard solution was added and they were mixed on a vortex mixer. Thereafter, the mixture was centrifuged (5000 rpm, 5 min, 4° C.). The supernatant (100 μL) after centrifugation was added to 10 mmol/L ammonium formate (100 μL) added earlier and mixed therewith. This sample was injected to LC/MS/MS. […] MS/MS used was AB Sciex TQ5500-MPX (Applied Biosystems).
Tmax: time to reach maximum plasma concentration
iv: intravenous administration
CL total: total clearance

Male ICR mice = test: Mouse defecation experiment; type: in vivo; conditions: mean±standard error
Experimental: Mouse Defecation Experiment
Male ICR mice (6-7 weeks old) were used after an acclimation period for about 1 week. A test drug (1 mg/kg or 3 mg/kg) was suspended in 0.5% methylcellulose solution and orally administered at a volume of 10 mL/kg, and the number of feces 2 hr later was counted. Only 0.5% methylcellulose was administered to a solvent administration group.

[2] = molecular target: T1, human M1 receptor (hCHRM1) (Homo sapiens, UniProt P11229); test: Measurement of M1 receptor positive allosteric modulator (M1PAM) activity, calcium fluorescence in CHO-K1 cells; type: cell-based; conditions: for activity (%) at 10 μM: 10 μM test compound, 100% = acetylcholine final concentration 1 μM, 0% = DMSO; for EC50: inflection point of concentration-dependent curve, in the presence of acetylcholine at EC20 concentration (final 0.8-1.0 nM), read-out: IP value
T1 construct: expressed in transfected cells
T1 sequence (P11229 1-460): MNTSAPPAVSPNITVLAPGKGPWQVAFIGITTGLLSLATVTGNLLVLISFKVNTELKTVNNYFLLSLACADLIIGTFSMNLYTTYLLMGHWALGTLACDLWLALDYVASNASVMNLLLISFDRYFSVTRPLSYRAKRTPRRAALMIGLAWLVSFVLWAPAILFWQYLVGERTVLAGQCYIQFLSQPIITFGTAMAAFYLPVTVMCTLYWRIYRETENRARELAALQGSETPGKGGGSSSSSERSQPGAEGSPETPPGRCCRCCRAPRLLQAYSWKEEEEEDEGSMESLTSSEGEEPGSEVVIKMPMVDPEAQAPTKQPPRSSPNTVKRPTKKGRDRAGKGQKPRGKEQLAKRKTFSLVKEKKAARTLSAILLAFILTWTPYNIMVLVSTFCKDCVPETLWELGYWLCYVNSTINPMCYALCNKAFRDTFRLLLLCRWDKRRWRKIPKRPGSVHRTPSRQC
Method in brief: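 CHO-K1 cells stably expressing human M1 loaded with Fluo-4 AM, then given compound plus acetylcholine at EC20 (final 0.8-1.0 nM). Calcium fluorescence read for 1 min; activity normalized to 1 μM acetylcholine (100%) and DMSO (0%), with IP taken as inflection point of concentration curve.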

| Structure (SMILES) | Tmax [1] [h] | MRT [1] [h] | clearance [1] [mL/min/kg] | number of feces 2 hr later (Male ICR mice; 1 mg/kg orally) | activity (%) at 10 μM [2] [%] | EC50 [2] [nM] | number of feces 2 hr later (Male ICR mice; 3 mg/kg orally) |
| --- | --- | --- | --- | --- | --- | --- | --- |
| COCCNC(=O)c1ccc(Cc2cc3c(=O)n([C@H]4CCOC[C@@H]4O)cnc3c(C)c2C)cc1F [Example 66, 1,5-anhydro-2,3-dideoxy-3-(6-(3-fluoro-4-((2-methoxyethyl)carbamoyl)benzyl)-7,8-dimethyl-4-oxoquinazolin-3(4H)-yl)-L-threo-pentitol] | 0.7 | 0.8 | 26.6 | 9.3 ± 1.2 | 106 | 1.8 |  |
| Cc1nn(C)cc1-c1ccc(Cc2cc3c(=O)n([C@H]4CCOC[C@@H]4O)cnc3c(C)c2C)cn1 [Example 5, 1,5-anhydro-2,3-dideoxy-3-(6-((6-(1,3-dimethyl-1H-pyrazol-4-yl)pyridin-3-yl)methyl)-7,8-dimethyl-4-oxoquinazolin-3(4H)-yl)-L-threo-pentitol] | 0.7 | 1.2 | 7.45 | 5.6 ± 1.0 | 97 | 1.5 | 8.4 ± 2.6 |
| Cc1c(Cc2ccc(-c3cn(C)nn3)nc2)cc2c(=O)n([C@H]3CCOC[C@@H]3O)cnc2c1C [Example 2, 1,5-anhydro-2,3-dideoxy-3-(7,8-dimethyl-6-((6-(1-methyl-1H-1,2,3-triazol-4-yl)pyridin-3-yl)methyl)-4-oxoquinazolin-3(4H)-yl)-L-threo-pentitol] | 1 | 1 | 10.9 | 5.0 ± 0.7 | 104 | 1.5 | 11.3 ± 0.6 |
| CNC(=O)c1ccc(Cc2cc3c(=O)n([C@H]4CCOC[C@@H]4O)cnc3c(C)c2C)cc1F [Example 3, 1,5-anhydro-2,3-dideoxy-3-(6-(3-fluoro-4-(methylcarbamoyl)benzyl)-7,8-dimethyl-4-oxoquinazolin-3(4H)-yl)-L-threo-pentitol] | 1.7 | 1.9 | 10.2 | 14.0 ± 1.0 | 103 | 1 |  |
| Cc1c(Cc2ccc(C(=O)NC[C@H]3CCCO3)c(F)c2)cc2c(=O)n([C@H]3CCOC[C@@H]3O)cnc2c1C [Example 81, 1,5-anhydro-2,3-dideoxy-3-(6-(3-fluoro-4-(((2R)-tetrahydrofuran-2-ylmethyl)carbamoyl)benzyl)-7,8-dimethyl-4-oxoquinazolin-3(4H)-yl)-L-threo-pentitol] | 0.5 | 0.5 | 72.2 |  | 110 | 3.7 |  |
| CNC(=O)c1ccc(Cc2cc3c(=O)n([C@H]4CCOC[C@@H]4O)nnc3c(Cl)c2C)cc1F [Example 19, 1,5-anhydro-3-(8-chloro-6-(3-fluoro-4-(methylcarbamoyl)benzyl)-7-methyl-4-oxo-1,2,3-benzotriazin-3(4H)-yl)-2,3-dideoxy-L-threo-pentitol] | 1.7 | 2.5 | 4.57 | 12.6 ± 1.2 | 103 | 1.6 |  |
| Cc1c(Cc2ccc(-c3cnn(C)c3)nc2)cc2c(=O)n([C@H]3CCOC[C@@H]3O)cnc2c1C [Example 6, 1,5-anhydro-2,3-dideoxy-3-(7,8-dimethyl-6-((6-(1-methyl-1H-pyrazol-4-yl)pyridin-3-yl)methyl)-4-oxoquinazolin-3(4H)-yl)-L-threo-pentitol] | 1.7 | 1.4 | 4.55 | 7.2 ± 1.8 | 99 | 0.96 | 8.2 ± 1.0 |
